pIC50: −log10 of the molar value. Structures can show the parent of a compound that is named as a salt.
Molecular target: T1, rat FAAH (Rattus norvegicus, UniProt P97612)
T1 construct: expressed in transfected cells
T1 sequence (P97612 1-579): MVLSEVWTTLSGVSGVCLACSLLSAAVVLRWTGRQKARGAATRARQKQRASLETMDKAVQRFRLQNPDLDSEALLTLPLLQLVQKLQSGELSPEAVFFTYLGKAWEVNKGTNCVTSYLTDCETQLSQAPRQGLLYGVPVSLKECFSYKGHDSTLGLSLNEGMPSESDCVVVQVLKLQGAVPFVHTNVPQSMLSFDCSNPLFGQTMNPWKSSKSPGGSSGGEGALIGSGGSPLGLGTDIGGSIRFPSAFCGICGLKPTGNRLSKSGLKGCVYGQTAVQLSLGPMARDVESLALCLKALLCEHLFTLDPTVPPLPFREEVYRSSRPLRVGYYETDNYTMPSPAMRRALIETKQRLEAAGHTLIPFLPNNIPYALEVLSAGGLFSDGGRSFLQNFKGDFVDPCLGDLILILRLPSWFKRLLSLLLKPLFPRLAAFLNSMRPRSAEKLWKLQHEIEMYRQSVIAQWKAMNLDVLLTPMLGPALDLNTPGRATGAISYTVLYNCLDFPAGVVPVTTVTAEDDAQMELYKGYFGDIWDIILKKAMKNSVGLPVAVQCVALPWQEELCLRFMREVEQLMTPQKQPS
Assay: Assay Method 2: FAAH assay, anandamide hydrolysis in cell homogenate
Assay type: biochemical
Conditions: for pIC50: average value (standard error of the mean in parenthesis), 3H-AEA 80 nM, 1 h rt
Description: A. Transfection of Cells with Rat FAAH
A 10-cm tissue culture dish with a confluent monolayer of SK-N-MC cells was split 2 d prior to transfection. Using sterile technique, the media was removed and the cells were detached from the dish by the addition of trypsin. One fifth of the cells were then placed onto a new 10-cm dish. Cells were grown in a 37° C. incubator with 5% CO2 in Minimal Essential Media Eagle containing 10% Fetal Bovine Serum. After 2 d, cells were approximately 80% confluent. These cells were removed from the dish with trypsin and pelleted in a clinical centrifuge. The pellet was re-suspended in 400 μL complete media and transferred to an electroporation cuvette with a 0.4 cm gap between the electrodes. Supercoiled rat FAAH cDNA (1 μg), corresponding to NCBI accession NM_024132, was added to the cells and mixed. The voltage for the electroporation was set at 0.25 kV, and the capacitance was set at 960 μF. After electroporation, the cells were diluted into complete media (10 mL) and plated onto four 10-cm dishes. Because of the variability in the efficiency of electroporation, four different concentrations of cells were plated. The ratios used were 1:20, 1:10, and 1:5, with the remainder of the cells being added to the fourth dish. The cells were allowed to recover for 24 h before adding the selection media (complete media with 600 μg/mL G418). After 10 d, dishes were analyzed for surviving colonies of cells. Dishes with well-isolated colonies were used. Cells from individual colonies were isolated and tested.
T84 frozen cell pellets or transfected SK-N-MC cells (contents of 1×15 cm culture dishes) were homogenized in 50 mL of FAAH assay buffer (125 mM Tris, 1 mM EDTA, 0.2% Glycerol, 0.02% Triton X-100, 0.4 mM Hepes, pH 9). The assay mixture consisted of 50 μL of the cell homogenate, 10 μL of the test compound, and 40 μL of anandamide [1-^3H-ethanolamine] (^3H-AEA, Perkin-Elmer, 10.3 Ci/mmol), which was added last, for a final tracer concentration of 80 nM. The reaction mixture was incubated at rt for 1 h. During the incubation, 96-well Multiscreen filter plates (catalog #MAFCNOB50; Millipore, Bedford, Mass., USA) were loaded with 25 μL of activated charcoal (Multiscreen column loader, catalog #MACL09625, Millipore) and washed once with 100 μL of MeOH. Also during the incubation, 96-well DYNEX MicroLite plates (catalog #NL510410) were loaded with 100 μL of MicroScint40 (catalog #6013641, Packard Bioscience, Meriden, Conn., USA). After the 1 h incubation, 60 μL of the reaction mixture were transferred to the charcoal plates, which were then assembled on top of the DYNEX plates using Centrifuge Alignment Frames (catalog #MACF09604, Millipore). […]

| SMILES | pIC50 | times more potent in in vitro assays using rat FAAH enzyme (vs 4-chlorophenyl comparator) (relative to 4-({3-[(4-chlorophenyl)oxy]phenyl}methyl)-N-pyridin-3-ylpiperazine-1-carboxamide) |
| --- | --- | --- |
| O=C(Nc1cccnc1)N1CCN(Cc2cccc(Oc3ccc(Cl)cc3)c2)CC1 [4-({3-[(4-Chlorophenyl)oxy]phenyl}methyl)-N-pyridin-3-ylpiperazine-1-carboxamide] | 7.19 |  |
| O=C(Nc1cccnc1)N1CCN(Cc2cccc(Oc3ccc(Br)cc3)c2)CC1 [4-[3-(4-Bromophenoxy)benzyl]-N-pyridin-3-ylpiperazine-1-carboxamide] | 7.66 |  |
| O=C(Nc1cccnc1)N1CCN(Cc2cccc(Oc3ccc(C(F)(F)F)cc3)c2)CC1 [Example 1, N-Pyridin-3-yl-4-{3-[4-(trifluoromethyl)phenoxy]benzyl}piperazine-1-carboxamide, bis-hydrochloride dihydrate] | 7.74 | about 3.5 times |
